Experimental data taken from publication PMC9749936, “Synthesis and structure–activity relationship studies of N-terminal analogues of the lipopeptide antibiotics brevicidine and laterocidine” (RSC Medicinal Chemistry, 2022).
Bridge positions count the residues as written; N and C are the ends. Square brackets hold non-standard residues; d marks the D form. Peptide text beside a SMILES is read from it. * marks the point of attachment. ξ: configuration not given here. Hexanoyl(4ξ-Me) = CCC(C)CCC(=O)*; Lauroyl = CCCCCCCCCCCC(=O)*; dOrn = NCCC[C@@H](N)C(=O)O; Orn = NCCC[C@H](N)C(=O)O; Butyryl = CCCC(=O)*

Legend:
E. coli ATCC 25922 = format: cell-based, Escherichia coli; conditions: ATCC 25922, 18 h
Method in brief: (§1)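 Broth microdilution MIC per CLSI guidelines in MHB, with compound from DMSO stocks serially diluted in polypropylene plates.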

E. coli ATCC 25922 MCR-1 = format: cell-based, Escherichia coli; conditions: colistin-resistant strain carrying mcr-1; CLSI broth microdilution in MHB, 18 h at 37 °C, visual inspection; three technical replicates
K. pneumoniae ATCC 13883 = format: cell-based, Klebsiella pneumoniae; conditions: ATCC 13883, 18 h
Method in brief: as §1

A. baumannii ATCC 17961 = format: cell-based, Acinetobacter baumannii; conditions: ATCC 17961, 18 h
Method in brief: as §1

P. aeruginosa PAO1 = format: cell-based, Pseudomonas aeruginosa; conditions: PAO1, 18 h
Method in brief: as §1

S. aureus USA300 = format: cell-based, Staphylococcus aureus; conditions: USA300, 18 h
Method in brief: as §1

Sheep red blood cells = format: cell-based; conditions: red cells of sheep, 1 h, 64 μg mL^−1

Row | SMILES | Antimicrobial activity (MIC) E. coli ATCC 25922 (E. coli ATCC 25922) [µg/mL] | Antimicrobial activity (MIC) E. coli ATCC 25922 MCR-1 (E. coli ATCC 25922 MCR-1) [µg/mL] | Antimicrobial activity (MIC) K. pneumoniae ATCC 13883 (K. pneumoniae ATCC 13883) [µg/mL] | Antimicrobial activity (MIC) A. baumannii ATCC 17961 (A. baumannii ATCC 17961) [µg/mL] | Antimicrobial activity (MIC) P. aeruginosa PAO1 (P. aeruginosa PAO1) [µg/mL] | Antimicrobial activity (MIC) S. aureus USA300 (S. aureus USA300) [µg/mL] | % Hemolytic activity, sheep red blood cells (Sheep red blood cells) [%]
1 | CCCC(=O)N[C@H](CC(N)=O)C(=O)N[C@H](Cc1ccc(O)cc1)C(=O)N[C@H](Cc1c[nH]c2ccccc12)C(=O)N[C@H](CCCN)C(=O)N[C@@H](CCCN)C(=O)NCC(=O)N[C@H](CCCN)C(=O)N[C@@H](Cc1c[nH]c2ccccc12)C(=O)N[C@@H]1C(=O)N[C@@H]([C@@H](C)CC)C(=O)NCC(=O)N[C@@H](CO)C(=O)O[C@@H]1C [Compound 11] (Butyryl-[dN][dY][dW][dOrn][Orn]G[dOrn]WTIGS; ester 9-C) | 32 | 32 | 8 | 32 | 16 | >32 | 0.1
2 | CCCCCCCCCCCC(=O)N[C@H](CO)C(=O)N[C@H](Cc1ccc(O)cc1)C(=O)N[C@H](Cc1c[nH]c2ccccc12)C(=O)N[C@H](CCCN)C(=O)N[C@@H](CCCN)C(=O)NCC(=O)N[C@H](CCCN)C(=O)N[C@@H](Cc1c[nH]c2ccccc12)C(=O)N[C@@H]1C(=O)N[C@@H]([C@@H](C)CC)C(=O)N[C@@H](CC(N)=O)C(=O)NCC(=O)NCC(=O)O[C@@H]1C [Compound 24] (Lauroyl-[dS][dY][dW][dOrn][Orn]G[dOrn]WTINGG; ester 9-C) | 4 | 4 | 8 | 2 | 8 | 32 | 21.5
3 | CC[C@H](C)[C@@H]1NC(=O)[C@@H](NC(=O)[C@H](Cc2c[nH]c3ccccc23)NC(=O)[C@@H](CCCN)NC(=O)CNC(=O)[C@H](CCCN)NC(=O)[C@@H](CCCN)NC(=O)[C@@H](Cc2c[nH]c3ccccc23)NC(=O)[C@@H](Cc2ccc(O)cc2)NC(=O)[C@H](N)CC(N)=O)[C@@H](C)OC(=O)[C@H](CO)NC(=O)CNC1=O [Compound 9] | >32 | >32 | >32 | >32 | 16 | >32 | 0.2
4 | CC[C@H](C)[C@@H]1NC(=O)[C@@H](NC(=O)[C@H](Cc2c[nH]c3ccccc23)NC(=O)[C@@H](CCCN)NC(=O)CNC(=O)[C@H](CCCN)NC(=O)[C@@H](CCCN)NC(=O)[C@@H](Cc2c[nH]c3ccccc23)NC(=O)[C@@H](Cc2ccc(O)cc2)NC(=O)[C@H](N)CO)[C@@H](C)OC(=O)CNC(=O)CNC(=O)[C@H](CC(N)=O)NC1=O [Compound 18] (H-[dS][dY][dW][dOrn][Orn]G[dOrn]WTINGG; ester 9-C) | >32 | >32 | >32 | >32 | >32 | >32 | 0.2
5 | CCCC(=O)N[C@H](CO)C(=O)N[C@H](Cc1ccc(O)cc1)C(=O)N[C@H](Cc1c[nH]c2ccccc12)C(=O)N[C@H](CCCN)C(=O)N[C@@H](CCCN)C(=O)NCC(=O)N[C@H](CCCN)C(=O)N[C@@H](Cc1c[nH]c2ccccc12)C(=O)N[C@@H]1C(=O)N[C@@H]([C@@H](C)CC)C(=O)N[C@@H](CC(N)=O)C(=O)NCC(=O)NCC(=O)O[C@@H]1C [Compound 20] (Butyryl-[dS][dY][dW][dOrn][Orn]G[dOrn]WTINGG; ester 9-C) | 16 | 32 | 32 | >32 | 8 | >32 | 0.3
6 | CCC(C)CCC(=O)N[C@H](CC(N)=O)C(=O)N[C@H](Cc1ccc(O)cc1)C(=O)N[C@H](Cc1c[nH]c2ccccc12)C(=O)N[C@H](CCCN)C(=O)N[C@@H](CCCN)C(=O)NCC(=O)N[C@H](CCCN)C(=O)N[C@@H](Cc1c[nH]c2ccccc12)C(=O)N[C@@H]1C(=O)N[C@@H]([C@@H](C)CC)C(=O)NCC(=O)N[C@@H](CO)C(=O)O[C@@H]1C (stereo partly shown) [Compound 1, brevicidine] ({Hexanoyl(4ξ-Me)}-[dN][dY][dW][dOrn][Orn]G[dOrn]WTIGS; ester 9-C) | 4 | 4 | 2 | 4 | 8 | >32 | 0.8
7 | CCCCCCCCCCCC(=O)N[C@H](CC(N)=O)C(=O)N[C@H](Cc1ccc(O)cc1)C(=O)N[C@H](Cc1c[nH]c2ccccc12)C(=O)N[C@H](CCCN)C(=O)N[C@@H](CCCN)C(=O)NCC(=O)N[C@H](CCCN)C(=O)N[C@@H](Cc1c[nH]c2ccccc12)C(=O)N[C@@H]1C(=O)N[C@@H]([C@@H](C)CC)C(=O)NCC(=O)N[C@@H](CO)C(=O)O[C@@H]1C [Compound 15] (Lauroyl-[dN][dY][dW][dOrn][Orn]G[dOrn]WTIGS; ester 9-C) | 8 | 8 | 8 | 4 | 16 | 32 | 13.3
